Data: patent US9284296B2, “Bipyridine sulfonamide derivatives for the treatment of neurodegenerative diseases or conditions” (AUBERGINE PHARMACEUTICALS LLC, priority 2010, dated 2016)

Columns and labels:
Assay type in all cases: cell-based
[1] = tested on: SH-SY5Y human neuroblastoma cells; test: Protection against hydrogen peroxide-induced cell death; details: for EC50: Homo sapiens, SH-SY5Y cells, 1 h preincubation, 100 μM hydrogen peroxide, 24 h, LDH readout of live cells
Method: The aim of this assay is to determine the neuroprotective effect of the compounds when human neuroblastoma cells are exposed to the oxidative stress induced by hydrogen peroxide, which leads to cell death. Therefore the protective effect of the compounds was measured by monitoring cell survival using a suitable commercial kit (Cytotoxicity Detection Kit, Roche Diagnostics GmbH, Mannheim, Germany) based on the quantification of the lactate dehydrogenase activity obtained from lysates of the remaining live cells with a colorimetric assay yielding absorbance at 492 nm as the final readout.
SH-SY5Y human neuroblastoma cells were seeded into 96-well culture plate at a density of 10,000 cells/well. Cells were preincubated for one hour with different concentrations of the compound at a 1% (v/v) DMSO concentration in an equivolumetric mixture of Minimum Essential Medium (MEM) and Nutrient Mixture HAM F12 supplemented with 10% foetal bovine serum, 100 U/ml penicillin, 100 μg/ml streptomycin, 1 mM each of non-essential aminoacids (commercial preparation from GIBCO, Paisley, UK) and 2 mM L-glutamine. Hydrogen peroxide was then added to reach 100 μM and the incubation was extended for 24 h. Then the medium was removed and live cells, which remained attached to the bottom of the plate, were lysed by incubating them during 5 min with 50 μl of 1% (v/v) Triton X-100 in Krebs-Hepes buffer (10 mM Hepes pH7.3 with 145 mM NaCl, 5.5 mM KCl, 1 mM MgCl2, 2 mM CaCl2 and 1 mM glucose). This lysate was used to measure LDH activity using the commercial kit according to the manufacturer's instructions. In the culture plate several wells were included as a control of cell death, in these wells the cells were preincubated with 1% (v/v) DMSO before hydrogen peroxide addition. Likewise, several wells were included as control for full cell survival, in these wells the addition of H2O2 was omitted. The absorbance of each tested sample was normalized to that of the control wells, so that for every compound concentration the percentage of protective effect was calculated with the following equation:
[formula] where “S” is the absorbance of the sample being considered, “E” is the average absorbance of wells used as control of full cell survival and “B” is the average absorbance of wells used as control of cell death. The values obtained at every compound concentration were finally used to calculate the EC50 (i.e., the concentration causing 50% of protective effect) of the tested compound. For that purpose the data were fitted to a classical 4-parameters isotherm equation using the nonlinear regression function of GraphPad™ Prism 5.0 (GraphPad Software Inc.), such equation is described below:
[formula] where “L” is the lower asymptote of the theoretical sigmoidal curve, “H” is the higher asymptote, “C” is the concentration of compound and “n” is the Hill coefficient.

[2] = tested on: secretion of soluble amyloid precursor protein-α (sAPPα); test: Stimulation of sAPPα secretion (CHO7w cells stably transfected with human APP, AlphaLISA); details: for EC50 / Emax: Homo sapiens, CHO-7W, CHO7w cells, 24 h incubation, range stated for the listed compounds together; for Emax: read-out: maximum effect (sAPPα secretion)
Method: The effect of the compounds on the stimulation of the secretion of soluble amyloid precursor protein-α (sAPPα) was determined by measuring the levels of this protein in cell supernatants after incubating the cells with several concentrations of the tested compound. A CHO7w cell line, stably transfected with human APP, was used. Cells were dispensed in 96-well culture plates (5,000 cells/well) and grown in DMEM supplemented with 2% (v/v) foetal bovine serum, 100 U/ml penicillin, 100 μg/ml streptomycin, 2 mM L-glutamine and 200 μg/ml G418 in the presence of several concentrations of the tested compound which had been previously dissolved in DMSO (1% (v/v) DMSO final concentration). After 24 h of incubation 5 μl of the culture supernatants were withdrawn and their sAPPα. concentration was measured with a commercial kit (AlphaLISA® Amyloid Precursor Protein-α Secreted Research kit, PerkinElmer, Waltham, Mass., USA) following manufacturer's instructions. In the culture plate several wells were included as a control for background sAPPα secretion, in these wells the cells were incubated with 1% (v/v) DMSO. The results obtained for each tested sample were normalized by using the following equation:
[formula] where “S” is the sAPPα concentration of the sample being considered, “B” is the average sAPPα concentration of wells used for background secretion and “M” is the sAPPα concentration of wells yielding the highest value. These normalized values obtained at every compound concentration were finally used to calculate the EC50 of the tested compound fitting them to a 4-parameters isotherm equation as already described. The average EC50s ranges are reported in Table 4 together with the maximum observed effect (and the concentration at which this effect was reached), this latter value was calculated for each compound according to the following equation:
[formula] with “M” and “B” as defined above.

[3] = tested on: secretion of amyloid peptide β1-40 (Aβ1-40); test: Inhibition of β-amyloid secretion (CHO7w cells stably transfected with human APP, ELISA); details: CHO-7W, 24 h incubation, range stated for the listed compounds together
Method: The inhibition caused by the compounds on the secretion of amyloid peptide β1-40 (Aβ1-40) was determined by measuring the levels of this peptide in cell supernatants after incubating the cells with several concentrations of the tested compound. A CHO7w cell line, stably transfected with human amyloid precursor protein (APP), was used. Cells were dispensed in 96-well culture plates (5,000 cells/well) and grown in DMEM supplemented with 2% (v/v) foetal bovine serum, 100 U/ml penicillin, 100 μg/ml streptomycin, 2 mM L-glutamine and 200 μg/ml G418 in the presence of several concentrations of the tested compound which had been previously dissolved in DMSO (1% (v/v) DMSO final concentration). After a 24 h incubation the amount of Aβ1-40 secreted to the medium was measured with an ELISA-based commercial kit (Human Amyloid β-40 ELISA High Sensitivity Kit, Millipore, Billerica, Mass., USA) using absorbance at 450 nm as the final readout. In the culture plate several wells were included as a control for lack of Aβ1-40 secretion, in these wells the cells were incubated in the presence of 16% (v/v) DMSO to inhibit cell growth therefore abolishing Aβ1-40 secretion. Likewise, several wells were also included as a control for full Aβ1-40 secretion, in these wells the cells were grown in the presence of 1% (v/v) DMSO. The absorbance of each tested sample was normalized to that of the control wells, so that for every compound concentration the percentage of inhibition was calculated with the following equation:
[formula] where “S” is the absorbance of the sample being considered, “E” is the average absorbance of wells lacking Aβ1-40 secretion and “B” is the average absorbance of wells with full Aβ1-40 secretion. The inhibition values obtained at every compound concentration were fitted to a 4-parameters isotherm equation, as described above, to calculate the […] (i.e., the concentration causing 50% of inhibition of Ab1-40 secretion).

[4] = comparison among tested compounds

Row | Structure (SMILES) | EC50 [2] [nM] | IC50 [3] [nM] | EC50 [1] [nM] | Emax [2] [%] | rank of maximum effect among compounds tested (sAPPα secretion) [2, 4] | rank of activity among compounds assayed (protection against hydrogen peroxide) ([1]; comparison within Table 2) | rank of concentration at which maximum effect was reached (sAPPα secretion) [2, 4]
1 | CCN(CC)CCOc1cc(CNS(=O)(=O)c2ccc(Cl)s2)nc(-c2ccccn2)c1 [Compound 30, 5-Chloro-thiophene-2-sulfonic acid [4-(2-diethylamino-ethoxy)-[2,2′]bipyridinyl-6-ylmethyl]-amide] | 500 to 11000 | 300 to 42000 | 290 | 250 to 500 | – | – | –
2 | COc1cc(CNS(=O)(=O)c2ccc(Cl)s2)nc(-c2ccccn2)c1 [Compound 2, 5-Chloro-thiophene-2-sulfonic acid (4-methoxy-[2,2′]bipyridinyl-6-ylmethyl)-amide] | 500 to 11000 | 300 to 42000 | 800 | 250 to 500 | maximum effect was obtained | – | –
3 | COc1cc(CNS(=O)(=O)c2cnc(Cl)s2)nc(-c2ccccn2)c1 [Compound 106] | – | 300 to 42000 | 630 | – | – | – | –
4 | CS(=O)(=O)c1cc(CNS(=O)(=O)c2ccc(Cl)s2)nc(-c2ccccn2)c1 [Compound 33, 5-Chloro-thiophene-2-sulfonic acid (4-methanesulfonyl-[2,2′]bipyridinyl-6-ylmethyl)-amide] | 500 to 11000 | 300 to 42000 | 1020 | 250 to 500 | – | – | –
5 | COc1cc(CNS(=O)(=O)c2ccc(F)c(C#N)c2)nc(-c2ccccn2)c1 [Compound 14, 3-Cyano-4-fluoro-N-(4-methoxy-[2,2′]bipyridinyl-6-ylmethyl)-benzenesulfonamide] | 500 to 11000 | – | 1600 | 250 to 500 | – | – | –
6 | COc1cc(CNS(=O)(=O)c2ccc(C(F)(F)F)cc2)nc(-c2ccccn2)c1 [Compound 4, N-(4-Methoxy-[2,2′]bipyridinyl-6-ylmethyl)-4-trifluoromethyl-benzenesulfonamide] | – | 300 to 42000 | 2600 | – | – | – | –
7 | COc1cc(CNS(=O)(=O)c2ccc(Br)cc2)nc(-c2ccccn2)c1 [Compound 16, 4-Bromo-N-(4-methoxy-[2,2′]bipyridinyl-6-ylmethyl)-benzenesulfonamide] | 500 to 11000 | – | 3200 | 250 to 500 | – | – | –
8 | COc1cc(CNS(=O)(=O)c2ccc(C)s2)nc(-c2ccccn2)c1 [Compound 24, 5-Methyl-thiophene-2-sulfonic acid (4-methoxy-[2,2′]bipyridinyl-6-ylmethyl)-amide] | – | 300 to 42000 | 3460 | – | – | – | –
9 | COc1cc(CNS(=O)(=O)c2cccc(F)c2)nc(-c2ccccn2)c1 [Compound 12, 3-Fluoro-N-(4-methoxy-[2,2′]bipyridinyl-6-ylmethyl)-benzenesulfonamide] | 500 to 11000 | – | 1060 | 250 to 500 | – | – | –
10 | COc1cc(CNS(=O)(=O)c2cccc(Cl)c2F)nc(-c2ccccn2)c1 [Compound 56] | – | 300 to 42000 | 1060 | – | – | – | –

Now from value to molecule, other results behind:

Row | EC50 [2] [nM] | IC50 [3] [nM] | Structure (SMILES) | EC50 [1] [nM] | Emax [2] [%] | rank of maximum effect among compounds tested (sAPPα secretion) [2, 4] | rank of activity among compounds assayed (protection against hydrogen peroxide) ([1]; comparison within Table 2) | rank of concentration at which maximum effect was reached (sAPPα secretion) [2, 4]
11 | 500 to 11000 | – | COc1cc(CNS(=O)(=O)c2ccc(C(C)=O)cc2)nc(-c2ccccn2)c1 [Compound 9] | 6100 | 250 to 500 | – | – | –
12 | 500 to 11000 | – | COc1cc(CNS(=O)(=O)c2ccc(Br)s2)nc(-c2ccccn2)c1 [Compound 18, 5-Bromo-thiophene-2-sulfonic acid (4-methoxy-[2,2′]bipyridinyl-6-ylmethyl)-amide] | 1880 | 250 to 500 | – | – | –
13 | 500 to 11000 | – | COc1cc(CNS(=O)(=O)c2ccccc2)nc(-c2ccccn2)c1 [Compound 6, N-(4-Methoxy-[2,2′]bipyridinyl-6-ylmethyl)-benzenesulfonamide] | 1580 | 250 to 500 | – | – | –
14 | 500 to 11000 | – | CCN(CC)CCOc1cc(CNS(=O)(=O)c2cccs2)nc(-c2ccccn2)c1 [Compound 28, Thiophene-2-sulfonic acid [4-(2-diethylamino-ethoxy)-[2,2′]bipyridinyl-6-ylmethyl]-amide] | 1160 | 250 to 500 | – | – | –
15 | 500 to 11000 | – | COc1cc(CNS(=O)(=O)c2ccc(C#N)cc2)nc(-c2ccccn2)c1 [Compound 13, 4-Cyano-N-(4-methoxy-[2,2′]bipyridinyl-6-ylmethyl)-benzenesulfonamide] | 1500 | 250 to 500 | – | – | –
16 | 500 to 11000 | – | COc1cc(CNS(=O)(=O)c2ccc(F)cc2)nc(-c2ccccn2)c1 [Compound 11, 4-Fluoro-N-(4-methoxy-[2,2′]bipyridinyl-6-ylmethyl)-benzenesulfonamide] | 1300 | 250 to 500 | – | – | –
17 | 500 to 11000 | – | CCN(CC)CCOc1cc(CNS(=O)(=O)c2ccc(C)s2)nc(-c2ccccn2)c1 [Compound 32, 5-Methyl-thiophene-2-sulfonic acid [4-(2-diethylamino-ethoxy)-[2,2′]bipyridinyl-6-ylmethyl]-amide] | 550 | 250 to 500 | – | – | –
18 | – | 300 to 42000 | COc1cc(CNS(=O)(=O)CC(F)(F)F)nc(-c2ccccn2)c1 [Compound 82] | 500 | – | – | – | –
19 | 500 to 11000 | – | COc1cc(CNS(=O)(=O)c2cccs2)nc(-c2ccccn2)c1 [Compound 8] | 90 | 250 to 500 | – | most active compound | maximum effect at the lowest concentration
20 | 500 to 11000 | 300 to 42000 | COc1cc(CNS(=O)(=O)c2cc(Cl)sc2Cl)nc(-c2ccccn2)c1 [Compound 19, 2,5-Dichloro-thiophene-3-sulfonic acid (4-methoxy-[2,2′]bipyridinyl-6-ylmethyl)-amide] | 1300 | 250 to 500 | – | – | –
21 | 500 to 11000 | 300 to 42000 | COc1cc(CNS(=O)(=O)c2cc(F)cc(F)c2)nc(-c2ccccn2)c1 [Compound 10] | 1170 | 250 to 500 | – | – | –
22 | – | 300 to 42000 | COc1cc(CNS(=O)(=O)c2sc(Cl)nc2Cl)nc(-c2ccccn2)c1 [Compound 101] | 230 | – | – | – | –
